From patent US8063077B2, “Factor Xa inhibitors” (Millennium Pharmaceuticals, Inc., priority 2006, dated 2011)

Target: T1, human plasma protein factor Xa (Homo sapiens, UniProt P00742)
T1 construct: The human plasma protein factor Xa was purchased from Haematologic Technologies; purchased Haematologic Technologies (Essex Junction, Vt.); host or cells: human plasma
Experiment: Factor Xa IC50 determination, cleavage of paranitroanilide substrate S-2765
Type: biochemical
Settings: factor Xa 1 nM, S2765 100 μM, Tris buffered saline pH 7.4, 5% DMSO
Description: This example illustrates methods for evaluating the compounds of the invention, along with results obtained for such assays. The in vitro and in vivo human Factor Xa activities of the inventive compounds can be determined by various procedures known in the art, such as a test for their ability to inhibit the activity of human plasma Factor Xa. […] The IC50 value is the concentration (in nM) of the compound required to provide 50% inhibition of human Factor Xa proteolytic activity.
An in vitro assay for detecting and measuring inhibition activity against Factor Xa is as follows:
The substrate S-2765 (Z-D-Arg-Gly-Arg-pNA•HCl) was obtained from Diapharma (West Chester, Ohio).
The human plasma protein factor Xa was purchased from Haematologic Technologies (Essex Junction, Vt.).
All assays, which are performed in 96-well microtiter plates, measure proteolytic activity of the enzyme (factor Xa) by following cleavage of a paranitroanilide peptide substrate. The assay buffer used for proteolytic assays was Tris buffered saline (20 mM Tris, 150 mM NaCl, 5 mM CaCl2, 0.1% Bovine serum albumin (BSA), 5% Dimethly Sulfoxide (DMSO) pH 7.4). In a 96-well microtiter plate, inhibitor was serially diluted to give a range of final concentrations from 0.01 nM to 10 μM. Duplicate sets of wells were assayed and control wells without inhibitor were included. Enzyme was added to each well, (factor Xa concentration=1 nM), the plate was shaken for 5 seconds and then incubated for 5 minutes at room temperature. S2765 was added (100 μM final) and the plate was shaken for 5 seconds (final volume in each well was 200 μl). The degree of substrate hydrolysis was measured at 405 nm on a Thermomax plate reader (Molecular Devices, Sunnyvale, Calif.) for 2 minutes. The initial velocities of substrate cleavage (mOD/min), for each range of inhibitor concentrations, were fitted to a four parameter equation using Softmax data analysis software. The parameter C, derived from the resulting curve-fit, corresponded to the concentration for half maximal inhibition (IC50).

T1 sequence (P00742 235-488 limits assumed): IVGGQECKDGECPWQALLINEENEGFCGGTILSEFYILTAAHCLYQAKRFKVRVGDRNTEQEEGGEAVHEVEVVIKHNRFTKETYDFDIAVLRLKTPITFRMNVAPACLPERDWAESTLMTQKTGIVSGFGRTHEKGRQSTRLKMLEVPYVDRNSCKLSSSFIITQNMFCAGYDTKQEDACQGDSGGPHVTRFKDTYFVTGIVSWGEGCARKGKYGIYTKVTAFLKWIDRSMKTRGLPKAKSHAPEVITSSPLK
T1 sequence (P00742 41-179 partner limits assumed): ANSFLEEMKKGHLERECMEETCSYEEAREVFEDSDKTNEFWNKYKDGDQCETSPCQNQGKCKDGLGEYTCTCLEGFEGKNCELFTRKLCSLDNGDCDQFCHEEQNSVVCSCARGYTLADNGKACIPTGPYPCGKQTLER

| SMILES | IC50 |
| --- | --- |
| Nc1ccn(-c2ccc(-n3cnc(CNC(=O)c4ccc(Cl)s4)c3)cc2)c(=O)n1 [Compound 48, N-((1-(4-(4-amino-2-oxopyrimidin-1(2H)-yl)phenyl)-1H-imidazol-4-yl)methyl)-5-chlorothiophene-2-carboxamide] | ≤ 100 nM |
| Cc1cccn(-c2ccc(-n3cnc(CNC(=O)c4ccc(Cl)s4)c3)cc2)c1=O [Compound 44, 5-chloro-N-((1-(4-(3-methyl-2-oxopyridin-1(2H)-yl)phenyl)-1H-imidazol-4-yl)methyl)thiophene-2-carboxamide] | ≤ 100 nM |
| COC(=O)c1cc(-n2ccccc2=O)ccc1-n1cnc(CNC(=O)c2ccc(Cl)s2)c1 [Compound 29, 5-Chloro-N-((1-(2-methoxycarbonyl-4-(2-oxopyridin-1(2H)-yl)phenyl)-1H-imidazol-4-yl)methyl)thiophene-2-carboxamide] | ≥ 500 nM |
| O=C(NCc1cn(-c2ccc(N3CC[S+]([O-])CC3=O)cc2)cn1)c1ccc(Cl)s1 (stereo not shown) [Compound 17, 5-Chloro-N-((1-(4-(1,3-dioxothiomorpholino)phenyl)-1H-imidazol-4-yl)methyl)thiophene-2-carboxamide] | 100 to 500 nM |
| C/N=c1\ccccn1-c1ccc(-n2cnc(CNC(=O)c3ccc(Cl)s3)c2)cc1 [Compound 34, (E)-5-chloro-N-((1-(4-(2-(methylimino)pyridin-1(2H)-yl)phenyl)-1H-imidazol-4-yl)methyl)thiophene-2-carboxamide] | ≤ 100 nM |
| CC(=O)/N=c1\ccccn1-c1ccc(-n2cnc(CNC(=O)c3ccc(Cl)s3)c2)cc1 [Compound 36, (E)-N-((1-(4-(2-(acetylimino)pyridin-1(2H)-yl)phenyl)-1H-imidazol-4-yl)methyl)-5-chlorothiophene-2-carboxamide] | ≤ 100 nM |
| O=C(NCc1cn(-c2ccc(-n3ccccc3=O)cc2O)cn1)c1ccc(Cl)s1 [Compound 28, 5-Chloro-N-((1-(2-hydroxy-4-(2-oxopyridin-1(2H)-yl)phenyl)-1H-imidazol-4-yl)methyl)thiophene-2-carboxamide] | 100 to 500 nM |
| C[S+]([O-])c1cc(-n2ccccc2=O)ccc1-n1cnc(CNC(=O)c2ccc(Cl)s2)c1 (stereo not shown) [Compound 23, 5-chloro-N-((1-(2-(methylsulfinyl)-4-(2-oxopyridin-1(2H)-yl)phenyl)-1H-imidazol-4-yl)methyl)thiophene-2-carboxamide] | ≤ 100 nM |
| Cn1c(Cl)ccc1C(=O)NCc1cn(-c2ccc(-n3ccccc3=O)cc2)cn1 [Compound 38, 5-chloro-1-methyl-N-((1-(4-(2-oxopyridin-1(2H)-yl)phenyl)-1H-imidazol-4-yl)methyl)-1H-pyrrole-2-carboxamide] | ≥ 500 nM |
| O=C(NCc1cn(-c2ccc(-n3ccccc3=O)cc2N2CCS(=O)(=O)CC2)cn1)c1ccc(Cl)s1 [Compound 25, 5-Chloro-N-((1-(4-(2-oxopyridin-1(2H)-yl)-2-(1,1-dioxo-thiomorpholin-4-yl)phenyl)-1H-imidazol-4-yl)methyl)thiophene-2-carboxamide] | ≤ 100 nM |
| CS(=O)(=O)c1nc(CNC(=O)c2ccc(Cl)s2)cn1-c1ccc(-n2cccc(F)c2=O)cc1 [Compound 67, 5-chloro-N-((1-(4-(3-fluoro-2-oxopyridin-1(2H)-yl)phenyl)-2-(methylsulfonyl)-1H-imidazol-4-yl)methyl)thiophene-2-carboxamide] | ≤ 100 nM |
| O=C(NCc1cn(-c2ccc(N3CCNC3=O)cc2)cn1)c1ccc(Cl)s1 [Compound 19, 5-Chloro-N-((1-(4-(2-oxoimidazolidin-1-yl)phenyl)-1H-imidazol-4-yl)methyl)thiophene-2-carboxamide] | 100 to 500 nM |
| O=C(NCc1cn(-c2ccc(-n3ccccc3=O)cc2F)cn1)c1ccc(Cl)s1 [Compound 21, 5-Chloro-N-((1-(2-fluoro-4-(2-oxopyridin-1(2H)-yl)phenyl)-1H-imidazol-4-yl)methyl)thiophene-2-carboxamide] | ≤ 100 nM |
